In PubChem BioAssay AID328 (DTP/NCI, 2004):
Where “and” joins values, the source holds several entries; their conditions need not be identical. Equal entries are not always repeated. Inconclusive results and toxic doses are left out. The calls were made as follows: active = survival T/C of 150% or more; inactive = T/C below 125% in these data.

Tested on: BDF1 mice, P388 leukemia ip, median survival T/C
Assay: NCI In Vivo Anticancer Drug Screen. Data for tumor model P388 Leukemia (intraperitoneal) in B6D2F1 (BDF1) mice
Conditions: endpoint: median survival time, higher = longer survival
In short: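 Steps: implant the tumour, treat one group with compound and another with vehicle, record survival, then divide treated by control.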

[1] = dose: 100.0 mg/kg/injection, schedule: Q04DX003 (ip), vehicle: saline with Tween-80
[2] = dose: 200.0 mg/kg/injection, schedule: Q04DX003 (ip), vehicle: saline with Tween-80
[3] = dose: 400.0 mg/kg/injection, schedule: Q04DX003 (ip), vehicle: saline with Tween-80
[4] = dose: 25.0 mg/kg/injection, schedule: Q04DX003 (ip), vehicle: saline with Tween-80
[5] = dose: 50.0 mg/kg/injection, schedule: Q04DX003 (ip), vehicle: saline with Tween-80
[6] = dose: 100.0 mg/kg/injection, schedule: Q01DX009 (ip), vehicle: Klucel (hydroxypropylcellulose) (HPC)
[7] = dose: 400.0 mg/kg/injection, schedule: Q01DX009 (ip), vehicle: Klucel (hydroxypropylcellulose) (HPC)
[8] = dose: 50.0 mg/kg/injection, schedule: Q01DX009 (ip), vehicle: saline with Tween-80
[9] = dose: 100.0 mg/kg/injection, schedule: Q01DX009 (ip), vehicle: saline with Tween-80
[10] = dose: 200.0 mg/kg/injection, schedule: Q01DX009 (ip), vehicle: saline with Tween-80
[11] = dose: 400.0 mg/kg/injection, schedule: Q01DX009 (ip), vehicle: saline with Tween-80

Measured: T/C

NC(=O)c1ccc[n+](Cc2c(Cl)cccc2Cl)c1
inactive: dose: 0.29 mg/kg/injection, schedule: Q01DX009 (ip), vehicle: saline 105 % of control | dose: 0.44 mg/kg/injection, schedule: Q01DX009 (ip), vehicle: saline 115 % of control | dose: 1.2 mg/kg/injection, schedule: Q04DX003 (ip), vehicle: saline 122 % of control | dose: 1.25 mg/kg/injection, schedule: Q01DX009 (ip), vehicle: saline 96 % of control | dose: 2.5 mg/kg/injection, schedule: Q01DX009 (ip), vehicle: saline 96 % of control | dose: 5.0 mg/kg/injection, schedule: Q01DX009 (ip), vehicle: saline 96 % of control | dose: 10.0 mg/kg/injection, schedule: Q01DX009 (ip), vehicle: saline 94 % of control | dose: 20.0 mg/kg/injection, schedule: Q01DX009 (ip), vehicle: saline 109 % of control
active: dose: 1.56 mg/kg/injection, schedule: Q01DX009 (ip), vehicle: saline 160 % of control | dose: 3.12 mg/kg/injection, schedule: Q01DX009 (ip), vehicle: saline 185 % of control | dose: 4.12 mg/kg/injection, schedule: Q01DX009 (ip), vehicle: saline 168 % of control | dose: 6.25 mg/kg/injection, schedule: Q01DX009 (ip), vehicle: saline 154 % of control and 191 % of control and 200 % of control | dose: 8.9 mg/kg/injection, schedule: Q04DX003 (ip), vehicle: saline 163 % of control | dose: 13.5 mg/kg/injection, schedule: Q04DX003 (ip), vehicle: saline 154 % of control and 158 % of control

Cc1ccc2[nH]c(=S)[nH]c(=S)c2c1
inactive: [1] 108 % of control | [2] 95 % of control | [3] 108 % of control

CN(C)c1ccc(/C=C/c2ccc3ccccc3n2)cc1
inactive: [4] 86 % of control | [5] 86 % of control | [1] 86 % of control

C(=N\C(/N=C/c1ccccc1)c1ccccc1)/c1ccccc1
inactive: [6] 91 % of control | dose: 100.0 mg/kg/injection, schedule: Q04DX003 (ip), vehicle: Klucel (hydroxypropylcellulose) (HPC) 100 % of control | dose: 200.0 mg/kg/injection, schedule: Q04DX003 (ip), vehicle: Klucel (hydroxypropylcellulose) (HPC) 95 % of control | [7] 87 % of control | dose: 400.0 mg/kg/injection, schedule: Q04DX003 (ip), vehicle: Klucel (hydroxypropylcellulose) (HPC) 100 % of control

CCCC(C(CC)CO)C(CC)C(O)C(CC)CO (stereo not drawn)
inactive: dose: 50.0 mg/kg/injection, schedule: Q01DX005 (ip), vehicle: saline with Tween-80 100 % of control | dose: 100.0 mg/kg/injection, schedule: Q01DX005 (ip), vehicle: saline with Tween-80 94 % of control | dose: 200.0 mg/kg/injection, schedule: Q01DX005 (ip), vehicle: saline with Tween-80 99 % of control

CS(=O)(=O)OCCN(Cc1ccc(OS(C)(=O)=O)cc1)S(C)(=O)=O
inactive: [8] 102 % of control | [9] 103 % of control | [1] 107 % of control | [10] 110 % of control | [2] 109 % of control | [11] 94 % of control | [3] 111 % of control

CC(C)(C)CN1CN(CC(C)(C)C)CN(CC(C)(C)C)C1
inactive: dose: 100.0 mg/kg/injection, schedule: Q04DX002 (ip), vehicle: saline with Tween-80 94 % of control | dose: 200.0 mg/kg/injection, schedule: Q04DX002 (ip), vehicle: saline with Tween-80 97 % of control | dose: 400.0 mg/kg/injection, schedule: Q04DX002 (ip), vehicle: saline with Tween-80 94 % of control

CC(=O)Nc1ccc(Cl)cc1C(=O)c1ccc[nH]1
inactive: dose: 25.0 mg/kg/injection, schedule: Q01DX009 (ip), vehicle: saline 100 % of control | dose: 50.0 mg/kg/injection, schedule: Q01DX009 (ip), vehicle: saline 95 % of control | dose: 50.0 mg/kg/injection, schedule: Q04DX003 (ip), vehicle: saline 102 % of control | dose: 100.0 mg/kg/injection, schedule: Q04DX003 (ip), vehicle: saline 98 % of control | dose: 200.0 mg/kg/injection, schedule: Q01DX009 (ip), vehicle: saline 110 % of control | dose: 200.0 mg/kg/injection, schedule: Q04DX003 (ip), vehicle: saline 100 % of control | dose: 400.0 mg/kg/injection, schedule: Q01DX009 (ip), vehicle: saline 87 % of control | dose: 400.0 mg/kg/injection, schedule: Q04DX003 (ip), vehicle: saline 100 % of control

COc1cc2cc(c1Cl)NC(=O)/C=C/C(C)=C/[C@H](C)[C@@H]1C[C@@](O)(NC(=O)O1)[C@H](OC)C=C/C=C(\C)C2
inactive: dose: 1.6 micrograms/kg/injection, schedule: Q01DX009 (ip), vehicle: saline + alcohol 104 % of control | dose: 3.1 micrograms/kg/injection, schedule: Q01DX009 (ip), vehicle: saline + alcohol 95 % of control | dose: 6.2 micrograms/kg/injection, schedule: Q01DX009 (ip), vehicle: saline + alcohol 87 % of control | dose: 25.0 micrograms/kg/injection, schedule: Q01DX009 (ip), vehicle: saline + alcohol 108 % of control | dose: 50.0 micrograms/kg/injection, schedule: Q01DX009 (ip), vehicle: saline + alcohol 120 % of control | dose: 100.0 micrograms/kg/injection, schedule: Q01DX009 (ip), vehicle: saline + alcohol 120 % of control | dose: 200.0 micrograms/kg/injection, schedule: Q01DX009 (ip), vehicle: saline + alcohol 104 % of control

CC1OC(OC2C(O)CC(OC3C(O)CC(OC4CCC5(C)C(CCC6C5CCC5(C)C(C7=CC(=O)OC7)CCC65O)C4)OC3C)OC2C)CC(O)C1O (stereo not drawn)
inactive: dose: 0.63 mg/kg/injection, schedule: Q01DX010 (ip), vehicle: saline 113 % of control | dose: 1.25 mg/kg/injection, schedule: Q01DX010 (ip), vehicle: saline 100 % of control | dose: 2.5 mg/kg/injection, schedule: Q01DX010 (ip), vehicle: saline 118 % of control | dose: 5.0 mg/kg/injection, schedule: Q01DX010 (ip), vehicle: saline 100 % of control

CC(=O)CSc1nc2nccnc2[nH]1
inactive: dose: 25.0 mg/kg/injection, schedule: Q01DX009 (ip), vehicle: saline with Tween-80 111 % of control | [4] 97 % of control | [8] 111 % of control | [5] 108 % of control | [9] 106 % of control | [1] 97 % of control | [10] 106 % of control | [2] 105 % of control | [11] 103 % of control | [3] 100 % of control

O=CC(C=O)[N+](=O)[O-]
inactive: [6] 91 % of control | dose: 200.0 mg/kg/injection, schedule: Q01DX009 (ip), vehicle: Klucel (hydroxypropylcellulose) (HPC) 95 % of control | [7] 108 % of control

COc1cc2ccc(CC3NCCc4cc5c(cc43)OCO5)cc2cc1OC (stereo not drawn)
inactive: dose: 22.0 mg/kg/injection, schedule: Q01DX009 (ip), vehicle: saline with Tween-80 105 % of control | dose: 33.0 mg/kg/injection, schedule: Q01DX009 (ip), vehicle: saline with Tween-80 110 % of control | dose: 50.0 mg/kg/injection, schedule: Q01DX009 (ip), vehicle: other 100 % of control | [8] 115 % of control | dose: 75.0 mg/kg/injection, schedule: Q01DX009 (ip), vehicle: saline with Tween-80 110 % of control | dose: 100.0 mg/kg/injection, schedule: Q01DX009 (ip), vehicle: other 100 % of control | dose: 100.0 mg/kg/injection, schedule: Q04DX003 (ip), vehicle: other 118 % of control | dose: 200.0 mg/kg/injection, schedule: Q04DX003 (ip), vehicle: other 118 % of control

NC(=O)N/N=C1\CCCC(CCC(=O)O)C1 (stereo not drawn)
inactive: dose: 100.0 mg/kg/injection, schedule: Q01DX001 (ip), vehicle: Klucel (hydroxypropylcellulose) (HPC) 96 % of control | dose: 200.0 mg/kg/injection, schedule: Q01DX001 (ip), vehicle: Klucel (hydroxypropylcellulose) (HPC) 100 % of control | dose: 400.0 mg/kg/injection, schedule: Q01DX001 (ip), vehicle: Klucel (hydroxypropylcellulose) (HPC) 100 % of control

COc1ccccc1-n1c(=O)c(N=Nc2ccccc2)c(O)n(-c2ccccc2C)c1=S
inactive: dose: 100.0 mg/kg/injection, schedule: Q01DX001 (ip), vehicle: saline with Tween-80 95 % of control | dose: 200.0 mg/kg/injection, schedule: Q01DX001 (ip), vehicle: saline with Tween-80 95 % of control
